Several values for one entry are separate records, joined by “and”; a condition that tells them apart may be missing. Equal values may be shown once. Marks after values point to notes of the source that are not given here.
Columns and labels:
Assay type in all cases: in vivo
[1] = system: Scopolamine Induced Rat Dry Eye Model; experiment: Scopolamine induced rat dry eye model, Schirmer test (Example 5); conditions: ± SD
Protocol: (§1) Dry eye was induced using scopolamine hydrobromide (Sigma-Aldrich, St. Louis, Mo.), which was continuously and systemically delivered to the animals via an osmotic pump (2ML4 Alzet®; CedarLane, Burlington, Ontario) filled with scopolamine and implanted subcutaneously in the mid dorsal area between the scapulae. Scopolamine was delivered for a twenty-eight day period at 12.5 mg/day, which translated to 30.0±1.5 mg/kg via osmotic pump.
(§2) Treatments for G2-G6 continued daily for seventeen days (up to an including day twenty-one). Thereafter, treatments were terminated but the study continued for another week. During treatment, each animal was anesthetized in an isoflurane chamber. Once asleep, each animal received a 5 μL topical instillation of test article into the lower conjunctival sac of both eyes using a calibrated micropipette. If a clinical endpoint was also being tested, the test article was topically instilled at the end of the testing.
Tear production was monitored using the Schirmer test on days 5, 7, 14, 20 and 29 post induction of dry eye. Tear production was measured with Zone-Quick standardized phenol-red threads (FCI Ophthalmics, Marshfield Hills, Mass.) on animals lightly sedated with Isoflurane. The threads were inserted in the lateral lower canthus and left in place for thirty seconds. The length of the stained moistened portion of the thread was measured in millimeters, using the scale provided with the threads to an accuracy of 1 mm.

[2] = system: Scopolamine Induced Rat Dry Eye Model; experiment: Scopolamine induced rat dry eye model, tear break-up time (Example 5); conditions: for Tear Break-Up Time: ± SD
Protocol: as §1, §2
Tear break-up times were tested on day 13 (after 8 daily treatments), day 21 (after 16 daily treatments), and day 28 (after treatment was stopped for 7 days). TBUT was evaluated by instillation of 10 μL sodium fluorescein solution (0.2% in sterile saline) in the upper conjunctival sac of the anaesthetized animal. The lids were blinked manually to distribute the fluorescein with the tear film. Under the cobalt blue light of a portable slit lamp ophthalmoscope (Reichert Ophthalmic Instruments, Depew, N.Y.), the eye was held open and the time until one or more black streaks appeared in the precorneal tear film was recorded. For each eye, a minimum of triplicate readings were made with fresh fluorescein solution.

[3] = system: Scopolamine Induced Rat Dry Eye Model; experiment: Scopolamine induced rat dry eye model, Schirmer test (Example 5); conditions: ± SD; remark: listed apart in the source
[4] = system: Scopolamine Induced Rat Dry Eye Model; experiment: Scopolamine induced rat dry eye model, mucin in tear fluid washings, ELLA (Example 5); conditions: for Tear Mucin: ± SD
Protocol: as §1, §2
Tear fluid washings were collected from all six groups of rats on day 12 (after 7 daily treatments), day 19 (after 14 daily treatments) and day 28 (after treatment was stopped for 7 days) after instillation of 5 μL sterile saline in the lower conjunctival sac of the anaesthetized animal. The lids were blinked gently to mix the tear film with the saline. The diluted tear fluid was collected with a 5 μL volume glass capillary tube (Drummond Scientific Co, Broomhall, Pa.) by capillary action from the tear meniscus in the lateral canthus. Approximately 4-5 μL were routinely collected. In very dry eyes, a second 5 μL aliquot of saline was instilled before collection.
The concentrations of mucin glycoprotein in the diluted tear fluid washings were determined by an enzyme-linked lectin assay (ELLA). A sample containing 3 μg total protein was diluted to 100 μL in carbonate buffer pH 9.2 and transferred to a 96-well polystyrene microtiter plate (Corning Life Sciences #2592, Fisher Scientific, Nepean, Ontario). A dilution series of bovine submaxillary mucin (Sigma, St. Louis, Mo.) was included on each plate as the standard. The plates were coated by evaporation at 37° C. overnight. After, the plates were washed three times with wash buffer [PBS containing 0.3% BSA, 0.05% Tween-20] then blocked for nonspecific binding with PBS containing 3% BSA and 0.05% Tween-20 at 37° C. for one hour. The wells were rinsed three times in wash buffer, and then incubated in 2 μg/mL biotinylated UEA-1 diluted in wash buffer (Vector Labs, Burlingame, Calif.) at 37° C. for one hour. The wells were rinsed three times in wash buffer, and then incubated in 1 μg/mL HRP-conjugated neutravidin diluted in wash buffer (Pierce, Rockford, Ill.) at 37° C. for one hour. After the wells were rinsed three times in wash buffer the color development was performed with TMB (Promega, Madison, Wis.) and stopped with 0.5N Sulfuric acid. The concentration of mucin in the tear fluid washings was calculated as the ng mucin divided by the volume of tear fluid washing in μL that gave 3 μg total protein.

[5] = 0.4% topical 1× daily Days 5-21, Day 28 (7 days after treatment stopped)
[6] = 1% dose vs untreated and saline control groups
[7] = 1.0% topical 1× daily Days 5-21, Day 28 (7 days after treatment stopped)
[8] = 2.5% topical 1× daily Days 5-21, Day 28 (7 days after treatment stopped)
[9] = 0.00053% topical 1× daily Days 5-21, Day 28 (7 days after treatment stopped)

NCCCC[C@@H]1NC(=O)[C@H](CCC(=O)O)NC(=O)c2cc([N+](=O)[O-])ccc2OCCC(C(=O)NCC(=O)O)NC1=O (some centres unmarked) [Compound D3]
Schirmer's Test ([1]; 1.0% topical 1× daily Days 5-21, Day 20): 6.8 ± 0.8 mm | Schirmer's Test ([1]; 2.5% topical 1× daily Days 5-21, Day 7): 9.1 ± 1.9 mm | Schirmer's Test ([1]; 2.5% topical 1× daily Days 5-21, Day 14): 9.4 ± 1.4 mm | Tear Break-Up Time ([2]; 0.4% topical 1× daily Days 5-21, Day 13): 4.5 ± 1.7^b seconds | Tear Break-Up Time ([2]; 0.4% topical 1× daily Days 5-21, Day 21): 4.4 ± 1.7 s | Tear Break-Up Time [2, 5]: 4.3 ± 0.8 s | changes in TBUT at Day 28 as compared to Day 13 (in words) [2, 6]: statistically significantly improved TBUT | Tear Break-Up Time ([2]; 1.0% topical 1× daily Days 5-21, Day 21): 5.1 ± 1.9 s | Tear Break-Up Time [2, 7]: 6.4 ± 1.2 s | Tear Break-Up Time ([2]; 2.5% topical 1× daily Days 5-21, Day 13): 7.0 ± 2.3 s | Tear Break-Up Time ([2]; 2.5% topical 1× daily Days 5-21, Day 21): 5.8 ± 2.1 s | Tear Break-Up Time [2, 8]: 5.0 ± 1.3 s | Schirmer's Test ([3]; 0.4% group, Day 2, before treatment start (day 5)): 9.6 ± 3.0 mm | Schirmer's Test ([3]; 0.4% group, Day −1, presurgical, before treatment start (day 5)): 11.9 ± 4.4 mm and 11.9 ± 4.2 mm | Schirmer's Test ([3]; 0.4% topical 1× daily Days 5-21, Day 5 (test before first instillation)): 7.9 ± 3.2 mm | Schirmer's Test ([3]; 0.4% topical 1× daily Days 5-21, Day 7): 7.9 ± 1.6 mm | Schirmer's Test ([3]; 0.4% topical 1× daily Days 5-21, Day 14): 8.6 ± 3.0 mm | Schirmer's Test ([3]; 0.4% topical 1× daily Days 5-21, Day 20): 7.2 ± 1.8 mm | Schirmer's Test ([3]; 0.4% topical 1× daily Days 5-21, Day 29 (after treatment stopped)): 9.4 ± 2.0 mm | Schirmer's Test ([3]; 1.0% group, Day 2, before treatment start (day 5)): 9.8 ± 4.0 mm and 9.8 ± 3.8 mm | Schirmer's Test ([3]; 1.0% group, Day −1, presurgical, before treatment start (day 5)): 11.3 ± 4.5 mm and 11.3 ± 3.0 mm | Schirmer's Test ([3]; 1.0% topical 1× daily Days 5-21, Day 5 (test before first instillation)): 7.9 ± 2.3 mm | Schirmer's Test ([3]; 1.0% topical 1× daily Days 5-21, Day 7): 9.5 ± 4.2 mm | Schirmer's Test ([3]; 1.0% topical 1× daily Days 5-21, Day 14): 7.3 ± 2.3 mm | Schirmer's Test ([3]; 1.0% topical 1× daily Days 5-21, Day 29 (after treatment stopped)): 9.0 ± 2.9 mm | Schirmer's Test ([3]; 2.5% group, Day 2, before treatment start (day 5)): 9.8 ± 2.4 mm | Schirmer's Test ([3]; 2.5% group, Day −1, presurgical, before treatment start (day 5)): 11.5 ± 2.2 mm and 11.5 ± 1.8 mm | Schirmer's Test ([3]; 2.5% topical 1× daily Days 5-21, Day 5 (test before first instillation)): 9.6 ± 1.8 mm | Schirmer's Test ([3]; 2.5% topical 1× daily Days 5-21, Day 20): 9.1 ± 2.3 mm | Schirmer's Test ([3]; 2.5% topical 1× daily Days 5-21, Day 29 (after treatment stopped)): 7.7 ± 1.6 mm | Tear Mucin ([4]; 0.4% topical 1× daily Days 5-21, Day 12): 2.7 ± 2.2 ng/µL | Tear Mucin ([4]; 0.4% topical 1× daily Days 5-21, Day 19): 6.8 ± 3.2 ng/µL | Tear Mucin [4, 5]: 4.4 ± 3.8 ng/µL | changes in mucin production at Day 28 as compared to Day 12 (in words) [4, 6]: statistically significantly increased mucin production | Tear Mucin ([4]; 1.0% topical 1× daily Days 5-21, Day 12): 3.3 ng/µL and 3.3 ± 1.9 ng/µL | Tear Mucin ([4]; 1.0% topical 1× daily Days 5-21, Day 19): 9.1 ng/µL and 9.1 ± 5.1 ng/µL | Tear Mucin [4, 7]: 6.8 ng/µL and 6.8 ± 4.9 ng/µL | Tear Mucin ([4]; 2.5% topical 1× daily Days 5-21, Day 12): 1.6 ± 0.9 ng/µL | Tear Mucin ([4]; 2.5% topical 1× daily Days 5-21, Day 19): 6.5 ± 2.4 ng/µL | Tear Mucin [4, 8]: 3.0 ± 1.1 ng/µL

NGF: nerve growth factor (recombinant human), positive control
Schirmer's Test ([1]; 0.00053% topical 1× daily Days 5-21, Day 5 (test before first instillation)): 9.2 ± 2.5 mm | Schirmer's Test ([1]; 0.00053% topical 1× daily Days 5-21, Day 7): 7.8 ± 1.4 mm | Schirmer's Test ([1]; 0.00053% topical 1× daily Days 5-21, Day 14): 8.6 ± 2.1 mm | Schirmer's Test ([1]; 0.00053% topical 1× daily Days 5-21, Day 29 (after treatment stopped)): 7.5 ± 2.5 mm | Tear Break-Up Time ([2]; 0.00053% topical 1× daily Days 5-21, Day 13): 5.2 ± 1.6 s | Tear Break-Up Time ([2]; 0.00053% topical 1× daily Days 5-21, Day 21): 4.7 ± 0.8 s | Tear Break-Up Time [2, 9]: 4.2 ± 0.8 s | Schirmer's Test ([3]; 0.00053% group, Day 2, before treatment start (day 5)): 9.9 ± 4.9 mm and 9.9 ± 4.8 mm | Schirmer's Test ([3]; 0.00053% group, Day −1, presurgical, before treatment start (day 5)): 11.2 ± 3.7 mm and 11.2 ± 3.2 mm | Schirmer's Test ([3]; 0.00053% topical 1× daily Days 5-21, Day 20): 7.1 ± 2.4 mm | Tear Mucin ([4]; 0.00053% topical 1× daily Days 5-21, Day 12): 3.0 ± 2.3 ng/µL | Tear Mucin ([4]; 0.00053% topical 1× daily Days 5-21, Day 19): 6.8 ± 3.8 ng/µL | Tear Mucin [4, 9]: 2.4 ± 2.0 ng/µL

— patent US9707267B2, “Beta-turn peptidomimetic cyclic compounds for treating dry eye” (Mimetogen Pharmaceuticals, Inc., priority 2008, dated 2017)
